Test results reported in US20250129018A1, “PLEUROMUTILIN DERIVATIVES CONTAINING CYCLOALKYL GROUP AND PREPARATION METHODS AND APPLICATIONS THEREOF” (priority 2023, published 2025).
Values after ≈ are worked out from the molar mass of the structure shown. Where two headings read alike, the source gives them in different places.

How the values were obtained:
MRSA-337371 [1] = assay: MIC, two-fold serial dilution method; format: cell-based, Methicillin-resistant Staphylococcus aureus; details: for MIC: Staphylococcus aureus, read-out: minimum inhibitory concentration
Procedure: (§1) The pleuromutilin derivatives 1-4 prepared from Example 9 of the present disclosure were determined for their effect on Methicillin-resistant Staphylococcus aureus, Methicillin-resistant Staphylococcus epidermidis, standard strains of Staphylococcus aureus (S. aureus-29213 and S. aureus-25923), clinical strains 1-48 of S. aureus, Escherichia coli, S. agalactiae and S. dysgalactiae equisimilis (S. dysgalactiae-1, S. dysgalactiae-2, S. dysgalactiae-3) and minimum inhibitory concentration (MIC) using a two-fold serial dilution method, and the results were shown in Table 1, Table 2 and Table 3. The standard strains are commercially available from ATCC, and the clinical strains are preserved by Lanzhou Institute of Husbandry and Pharmaceutical Science of Chinese Academy of Agricultural Sciences (Lanzhou, Gansu, China).

S. aureus-34 = assay: MIC, clinical strain; format: cell-based, Staphylococcus aureus
Procedure: as §1

S. aureus-17 = assay: MIC, clinical strain; format: cell-based, Staphylococcus aureus
Procedure: as §1

S. aureus-2 = assay: MIC, clinical strain; format: cell-based, Staphylococcus aureus
Procedure: as §1

S. aureus-23 = assay: MIC, clinical strain; format: cell-based, Staphylococcus aureus
Procedure: as §1

S. aureus-5 = assay: MIC, clinical strain; format: cell-based, Staphylococcus aureus
Procedure: as §1

S. aureus-9 = assay: MIC, clinical strain; format: cell-based, Staphylococcus aureus
Procedure: as §1

S. aureus-12 = assay: MIC, clinical strain; format: cell-based, Staphylococcus aureus
Procedure: as §1

S. aureus-41 = assay: MIC, clinical strain; format: cell-based, Staphylococcus aureus
Procedure: as §1

S. aureus-43 = assay: MIC, clinical strain; format: cell-based, Staphylococcus aureus
Procedure: as §1

S. aureus-29213 = assay: MIC, two-fold serial dilution method; format: cell-based, Staphylococcus aureus; details: for MIC: Staphylococcus aureus, read-out: minimum inhibitory concentration
Procedure: as §1

S. aureus-25923 = assay: MIC, two-fold serial dilution method; format: cell-based, Staphylococcus aureus; details: for MIC: Staphylococcus aureus, read-out: minimum inhibitory concentration
Procedure: as §1

S. agalactiae-1 = assay: MIC, two-fold serial dilution method; format: cell-based; details: for MIC: Streptococcus agalactiae, read-out: minimum inhibitory concentration
Procedure: as §1

E. coli-25922 = assay: MIC, two-fold serial dilution method; format: cell-based, Escherichia coli; details: for MIC: Escherichia coli, read-out: minimum inhibitory concentration
Procedure: as §1

MRSE = assay: MIC, two-fold serial dilution method; format: cell-based, Methicillin-resistant Staphylococcus epidermidis; details: for MIC: Staphylococcus epidermidis, read-out: minimum inhibitory concentration
Procedure: as §1

MRSA-337371 [2] = assay: In vivo antimicrobial activity experiment in mice (systemic MRSA infection, survival); details: for protection rate against systemic MRSA infection in mice: 20 mg/kg; for mortality rate / final survival rate: immunosuppressed mice infected i.p. with MRSA-337371; for final survival rate: end of observation
Procedure: First, an MRSA-337371 cryopreservation solution was taken out from a freezer set at −80° C. and the following steps were performed: • (1) 10 μL of the thawed MRSA-337371 cryopreservation solution was pipetted and added into 6 mL of Tryptic Soy Broth (TSB), and incubated until the bacterial solution had become turbid; • (2) a sterile inoculation loop was dipped into and picked up a small amount of the bacterial solution and was dragged on an MH agar medium for streaking, and then the MH agar medium was inverted and placed in a constant temperature incubator at 37° C. to incubate for 24 hours; • (3) a single colony on the MH agar medium was picked and inoculated in 30 mL of MH liquid medium with an inoculation loop, and placed in a constant temperature shaking incubator at 37° C. for 18 hours for later use. […]
6-week-old, about 20 g-weighted, SPF-grade healthy mice (one half male and the other female) were randomly divided into 5 groups, with 10 mice in each group (one half male and the other female), which were specifically divided into a positive control group (an MRSA infection group), a negative control group (a sterile normal saline control group, which was injected with only 10 mL/kg of drug solvent), drug control groups (a Tiamulin treatment group and a Valnemulin treatment group) and an experimental group (a derivative 2 treatment group). 100 mg/kg of cyclophosphamide was intraperitoneally injected to the mice 4 days before the experiment, and 150 mg/kg of cyclophosphamide injection was injected to the mice 1 day before the experiment to keep the mice in an immunosuppressed state. After fasting for 12 hours, except for the negative control group, the remaining 4 groups were intraperitoneally injected with 0.5 mL of 10^8 CFU/mL bacterial solution, and after 30 min, the drug control groups and the experimental group were intravenously injected with 20 mg/kg of the respective drug. The mice were continued to be reared, and observed to record the deaths daily.
Calculation of survival rate: During the experiment, the morbidity and the mortality in each group of mice was observed and recorded in detail every day, and the survival rate in each group of mice was calculated as:
Survival rate=Number of surviving animals/Number of experimental animals×100%

[3] = day 1, 20 mg/kg intravenously 30 min after infection

| SMILES | in vitro minimum inhibitory concentration (S. aureus-34) | in vitro minimum inhibitory concentration (S. aureus-17) | in vitro minimum inhibitory concentration (S. aureus-2) | in vitro minimum inhibitory concentration (S. aureus-23) | in vitro minimum inhibitory concentration (S. aureus-5) | in vitro minimum inhibitory concentration (S. aureus-9) | in vitro minimum inhibitory concentration (S. aureus-12) | in vitro minimum inhibitory concentration (S. aureus-41) | in vitro minimum inhibitory concentration (S. aureus-43) | protection rate against systemic MRSA infection in mice (MRSA-337371 [2]) | mortality rate (MRSA-337371 [2]; [3]) | mortality rate (MRSA-337371 [2]; day 2, 20 mg/kg intravenously) | final survival rate (MRSA-337371 [2]; 20 mg/kg intravenously) | MIC (MRSE) | further results |
| --- | --- | --- | --- | --- | --- | --- | --- | --- | --- | --- | --- | --- | --- | --- | --- |
| C=CC1(C)CC(OC(=O)CSC(C)(C)CNC(=O)C2CCC2)C2(C)C(C)CCC3(CCC(=O)C32)C(C)C1O (centres unmarked) [derivative 2] | 0.063 | 0.063 | 0.063 | 0.063 | 0.031 | 0.063 | 0.031 | 0.031 | 0.016 | 60% | 10% | 40% | 60% |  | minimum inhibitory concentration (MRSA-337371 [1]; MRSA-337371): 0.031 µg/mL (≈ 0.0566 µM); minimum inhibitory concentration (S. aureus-29213; S. aureus-29213): 0.063 µg/mL (≈ 0.115 µM); minimum inhibitory concentration (S. aureus-25923; S. aureus-25923): 0.031 µg/mL (≈ 0.0566 µM); minimum inhibitory concentration (S. agalactiae-1; S. agalactiae-1): 0.031 µg/mL (≈ 0.0566 µM); minimum inhibitory concentration (E. coli-25922; E. coli-25922): >16 µg/mL; minimum inhibitory concentration (MRSE): 0.031 µg/mL (≈ 0.0566 µM); treatment effect in mice (MRSA-337371 [2]; compared with marketed drugs): superior to the marketed Tiamulin and Valnemulin |
| C=C[C@]1(C)C[C@@H](OC(=O)CSC(C)(C)CNC(=O)[C@H](N)C(C)C)[C@]2(C)[C@H](C)CC[C@]3(CCC(=O)[C@H]32)[C@@H](C)[C@@H]1O [Valnemulin] | 0.063 | 0.063 | 0.25 | 0.063 | 0.063 | 0.063 | 0.031 | 0.063 | 0.063 | 20% | 30% | 80% | 20% | 0.031 µg/mL (≈ 0.0549 µM) | MIC (MRSA-337371 [1]; MRSA): 0.031 µg/mL (≈ 0.0549 µM); MIC (S. aureus-29213): 0.063 µg/mL (≈ 0.112 µM); MIC (S. aureus-25923): 0.031 µg/mL (≈ 0.0549 µM); MIC (S. agalactiae-1): 0.031 µg/mL (≈ 0.0549 µM); MIC (E. coli-25922): 16 µg/mL (≈ 28.3 µM) |
| C=C[C@]1(C)C[C@@H](OC(=O)CSCCN(CC)CC)[C@]2(C)[C@H](C)CC[C@]3(CCC(=O)[C@H]32)[C@@H](C)[C@@H]1O [Tiamulin] | 0.5 | 0.5 | 0.5 | 0.5 | 0.5 | 0.5 | 0.5 | 0.5 | 1 | 10% | 50% | 80% | 10% | 0.5 µg/mL (≈ 1.01 µM) | MIC (MRSA-337371 [1]; MRSA-337371): 0.25 µg/mL (≈ 0.506 µM); MIC (S. aureus-29213; S. aureus-29213): 0.5 µg/mL (≈ 1.01 µM); MIC (S. aureus-25923; S. aureus-25923): 0.25 µg/mL (≈ 0.506 µM); MIC (S. agalactiae-1; S. agalactiae-1): 0.25 µg/mL (≈ 0.506 µM); MIC (E. coli-25922; E. coli-25922): > 16 µg/mL; mortality rate (MRSA-337371 [2]; day 3, 20 mg/kg intravenously): 90% |
